Results on one compound are retold here after patent US7981878B2, “Tumor treatment with gliotoxin derivatives” (priority 2005, dated 2011).

Molecules are shown by their SMILES.

The target in data set [1] is T1, Notch2 (Homo sapiens, UniProt Q04721).
T1 construct: endogenous in cells; host or cells: PBMCs from healthy donors, with or without TPA
The data set can be described thus: Notch2 activity in PBMCs from healthy donors by EMSA. To be noted: TPA-stimulated PBMCs, 0.2 μM gliotoxin, 4 hours. It is filed as cell-based. The protocol: FIG. 4: Gliotoxin induces apoptosis in unstimulated as well as in TPA-stimulated B-CLL cells within 4 hours. Normal PBMCs (peripheral blood mononuclear cells) from healthy donors show a markedly lower Notch2 activity. Although gliotoxin inhibits Notch2 also in normal, TPA-stimulated cells, the gliotoxin-caused apoptosis rate is markedly lower in normal cells as compared to B-CLL cells. Non-stimulated and TPA stimulated PBMC's from healthy donors (HD) are less sensitive to 0.2 μM Gliotoxin despite a basal Notch2 activity. PBMC's and CLL cells were incubated with 0.2 μM Gliotoxin with or without TPA for 4 hours and the Notch2 activity as well as the percentage of apoptotic cells were determined by EMSA and FACS analysis, respectively.
After 4 hours of gliotoxin treatment, massive signs of the starting apoptosis (AnnexinV+) could already be recognized in B-CLL cells. This effect was increased by TPA (a phorbol ester which stimulates the activation of lymphocytes).

Data set [2] deals with CD23. The data set is described as follows: CD23 expression (Notch2 target gene) in B-CLL cells by FACS. It is filed as cell-based, human. To be noted: 0.2 μM gliotoxin, 24 h. The protocol:
FIG. 3: Gliotoxin is a potent Notch2 trans-activation inhibitor in B-CLL cells. (A) EMSA showing the inhibition of DNA-bound Notch2IC complexes in the presence of 0.2 μg Gliotoxin. B-CLL samples (n=10) were cultured in the presence of 1 ng/ml TPA with or without 0.2 μM Gliotoxin for 24 hours. Nuclear extracts were subjected to EMSA using a oligonucleotide probe spanning a well defined CBF1/NotchIC binding site derived from the CD23a promoter. (B). Corresponding FACS analysis (plus 10 additional B-CLL samples) showing the downregulation of the Notch2 target gene CD23 as well as the induction of apoptosis of Gliotoxin treated B-CLL samples. Columnes represent the percentage of CD19^+CD23^+ (grey bars) and apoptotic cells (black bars: including early apoptotic cells single positive for AnnexinV, and late apoptotic cells double positive for AnnexinV and probidium iodide), respectively.
As drug screening model, a cell culture system was established which conserves the phenotype of freshly isolated B-CLL cells (3×10^6 B-CLL cells/ml RPMI medium+10% FCS, supplemented with 1 ng/ml of TPA). Notch2 activity in the cell nucleus is determined by means of EMSA (electrophoretic mobility shift assay) experiments, and the cell viability (Probidium iodide/annexinV) and CD23 expression (Notch2 target gene) is determined by means of FACS (flow cytometry) analyses, respectively. […]
Background: A flow cytometer gives signals particle by particle.

In data set [3] the test system is HeLa cells (cervix carcinoma). The data set is described as follows: Cell count analysis HeLa. To be noted: 0.2 μM gliotoxin, within 72 hours. It is filed as cell-based, human. The protocol:
(§1) FIG. 8 a-d: Effects of gliotoxin on cell counts of various human tumour cell lines in vitro. Cell counts of a) hepatocellular carcinoma cell lines HepG2, Huh7, SNU398, Hep3b, HeLa (cervix) and the cholangiocarcinoma cell line NEC as well as b) the pancreatic cancer cell line Panc-1 and the melanoma cell lines d) MelJuso, Meljuso-Bcl-2 (+) and 607B after 72 h treatment with 200 nM gliotoxin; c-d) Cell count dose range experiments with c) pancreatic carcinoma cell lines Panc-1 and MiaPaCa as well as melanoma cell lines MelJuso, 518A2 and 607B using 25, 50 100 and 200 nM gliotoxin for 24 h. All data are given relative to control ±standard deviation.
(§2) Tumour cells were seeded at a density of 10,000 cells/well in 24-well plates. 24 h after seeding, medium containing gliotoxin was added to yield desired concentrations of gliotoxin. At time points indicated, culture medium was removed by suction. Adherent cells were washed with DPBS (Cambrex, Verviers, Belgium) and incubated with trypsin (Gibco) at 37° C. Detached cells were transferred to test tubes containing Cellpack isotonic fluid (Sysmex Europe, Bornbarch, Germany) and counted with a Coulter Z1 electronic cell counter (Beckman Coulter, Bedford, UK).

Data set [4] has as its system 518A2 (melanoma). The data set can be described thus: Cell count analysis 518A2. It is filed as cell-based, human. The protocol:
as §1, §2

Data set [5] has as its system 518A2 melanoma xenograft. The data set is described as follows: 518A2 melanoma nude mouse xenograft model. Format: in vivo. The source says: FIG. 9: Effects of gliotoxin in a 518A2 melanoma nude mouse xenograft model. 518 A2 cells (9×10^6) were inoculated into the lower right and left flank of each mouse. […] The flexible dose and treatment schedule of each group are given in the squares next to each group in the figure. All data are given as mean tumour volumes ±95% CI. The dotted arrows indicate a significant decrease of tumour volume (Wilcoxon matched pairs test, P<0.05) within Group 2 and Group 4 three days after application of 5 mg-0-2.5 mg of gliotoxin. It was shown that even at late administrations with progressed tumours gliotoxin administration is effective group 4 (ip administration at day 25).
Pathogen-free, 4-6 week old, female athymic nude mice (Harlan Winkelmann, Borchen, Germany) were housed under sterile conditions and treated according to the regulations of the local animal welfare committee. Hundred μl of a tumour cell suspension in DPBS containing 9×10^6 518A2 cells were inoculated into the lower right and left flank of each mouse. When mean tumour volume reached approximately 75 mm^3 (based on caliper measurements), mice (n=8/control group, n=6/treatment group) were randomly assigned to treatment groups and received one of the following treatment regimens:
Control (2% DMSO), Group 1 (start dose 1 mg/kg i.p.), Group 2 (start dose 5 mg/kg i.v.), and Group 3 (start dose 5 mg ip) and Group 4 (start dose 7 mg s.c.).
Flexible explorative dosing schedule was used in this in vivo trial: At baseline, all treatment groups received their respective start dose to estimate immediate toxicity of gliotoxin. Beginning with day 4:
Group 1 received 1 mg/kg daily including day 19.
Group 2 received 5 mg i.v. at day 4 and day 7 followed by 5 mg-0-2.5 mg ip at day 11
Group 3 received 5 mg/kg i.p. once weakly including day 18.
Group 4 remained untreated until day 25 and received then 5 mg-0-2.5 mg once only. The trial was stopped when control mice reached a mean tumour volume of 1000 mm^3.
In the xenograft melanoma model, tumour volume of each group is given as mean±95% confidence interval. The anti-tumour effect of gliotoxin was described as tumour volume of treatment group/tumour volume of control group×100 (T/C).

Data set [6] has as its system B1 B-cells (LPS responder). To be noted: mice, single administration of 100 μg of gliotoxin; cited from earlier work.

T1 sequence (Q04721 1697-2471 limits assumed): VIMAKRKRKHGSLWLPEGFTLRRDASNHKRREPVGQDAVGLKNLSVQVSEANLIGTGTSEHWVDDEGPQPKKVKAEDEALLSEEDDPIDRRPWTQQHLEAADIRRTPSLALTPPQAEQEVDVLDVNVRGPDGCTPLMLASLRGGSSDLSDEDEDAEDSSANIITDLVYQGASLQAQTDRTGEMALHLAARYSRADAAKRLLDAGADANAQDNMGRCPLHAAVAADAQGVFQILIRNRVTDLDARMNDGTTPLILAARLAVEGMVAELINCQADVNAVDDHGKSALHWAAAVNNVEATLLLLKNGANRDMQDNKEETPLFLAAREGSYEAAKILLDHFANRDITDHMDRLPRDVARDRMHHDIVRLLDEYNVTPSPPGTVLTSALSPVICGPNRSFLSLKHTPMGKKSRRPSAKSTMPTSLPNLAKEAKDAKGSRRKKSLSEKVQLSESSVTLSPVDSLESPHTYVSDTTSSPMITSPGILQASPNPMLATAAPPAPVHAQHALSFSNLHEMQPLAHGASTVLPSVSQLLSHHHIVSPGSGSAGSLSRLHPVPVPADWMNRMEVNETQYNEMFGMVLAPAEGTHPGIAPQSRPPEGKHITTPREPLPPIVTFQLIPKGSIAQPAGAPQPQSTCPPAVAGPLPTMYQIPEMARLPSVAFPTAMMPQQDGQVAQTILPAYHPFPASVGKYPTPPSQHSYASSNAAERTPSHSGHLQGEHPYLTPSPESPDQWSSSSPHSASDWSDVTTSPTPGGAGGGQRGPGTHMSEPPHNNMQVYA

Regarding `CN1C(=O)[C@]23CC4=CC=C[C@H](O)[C@H]4N2C(=O)[C@@]1(CO)SS3` [gliotoxin, [3R-(3α,5aβ,6β,10aα)]-2,3,5a,6-tetrahydro-6-hydroxy-3-(hydroxymethyl)-2-methyl-10H-3,10a-epi-dithiopyrazino[1,2-a]indol-1,4-dion], the “physiologic Notch2 activity (EMSA)” value in data set [1] is “marked reduction”. Further, the CD23 expression entry in data set [2] is on record as “loss of the CD23 expression”. In addition, in data set [3], the “effect on the cell count” value is reported as “no significant effect”. In addition, in data set [4] (518A2, 200 nM gliotoxin, 72 h), the “effect on cell count” value is reported as “very effective”. Moreover, the “cytotoxicity in dose range experiment (cell count)” value in data set [4] (518A2, 25, 50, 100 and 200 nM, 24 h) is “clear dose dependent cytotoxicity”. The “T/C (tumour volume of treatment group/control group×100)” value is 37% in data set [5] (Group 1, 1 mg/kg i.p. daily until day 19, day 21); 32% in data set [5] (Group 2, 3×5 mg iv within 7 days then 1×5 mg-0-2.5 mg ip day 11, day 21); 49% in data set [5] (Group 3, 5 mg/kg i.p. weekly until day 18, day 21); 23% in data set [5] (Group 4, 5 mg-0-2.5 mg once at day 25, day 32); 92% in data set [5] (Group 4, single 7 mg/kg s.c. start dose, then untreated, day 25). For the same compound, the mean tumour volume was 115 mm^3 in data set [5] (Group 2, day 11 (before application of 5 mg-0-2.5 mg)); 83 mm^3 in data set [5] (Group 2, day 15 (after application of 5 mg-0-2.5 mg at day 11)); 576 mm^3 in data set [5] (Group 4, day 25 (before application of 5 mg-0-2.5 mg)); 218 mm^3 in data set [5] (Group 4, day 28 (after application of 5 mg-0-2.5 mg at day 25)). Moreover, in data set [5] (Group 4, 7 mg/kg s.c. start dose, nude mice), the “toxicity after subcutaneous application” value is “severe local toxicity”. The “effect on B1 B-cells (LPS responder)” value in data set [6] is “complete loss of B1 B-cells”.
